Results on 1 molecule are retold here after ChEMBL document CHEMBL3832050, “DailyMed|setid=da574350-be6b-49f3-b2ef-64da06af9b9d | PAMDRONATE DISODIUM - pamodronate disodium injection, solution|GENERAMEDIX, INC”.

The test system of one data set is Homo sapiens. Kind of data set: (§1) Mean pharmacokinetic parameters for Pamidronate after intravenous infusion of 30, 60 and 90 mg of Pamidronate disodium for 4 hours and 90 mg for 24 hours in cancer patients, 6 in each group. The format is ADME, organism-based. The arrangement: dose 90 mg, dose 30 mg, dose 60 mg, route iv. The following applies: in vivo, iv, dosed compound id 8, dosed compound name PAMIDRONATE DISODIUM, gender male and female, regimen Single dose; for Excretion: tissue Urine.

Data set [1] is described as follows: as §1. The following applies: human, in vivo, dosed compound id 8, dosed compound name PAMIDRONATE DISODIUM, gender male and female, regimen Single dose, route iv, study dosing duration 4 hours. Format: ADME, organism-based. Also on record: dose 90 mg, dose 30 mg, dose 60 mg, route iv.
[2] abbreviates: dose 60 mg, study dosing duration 4 hours, tissue Plasma.
Setting [3] is: dose 90 mg, study dosing duration 4 hours, tissue Plasma.
Setting [4] is: dose 90 mg, study dosing duration 24 hours, tissue Plasma.

The structures appear in SMILES notation.

`NCCC(O)(P(=O)([O-])O)P(=O)([O-])O.[Na+].[Na+]`: the Excretion was 47.4% with Homo sapiens (at 60 mg, study dosing duration 4 hours); 45.3% in the data set with Homo sapiens (at 90 mg, study dosing duration 4 hours); 47.5% in the data set on Homo sapiens (at 90 mg, study dosing duration 24 hours). The values for the CL with Homo sapiens (setting [2]), with Homo sapiens (setting [3]) and in the data set on Homo sapiens (setting [4]) were 88 mL/min, 103 mL/min and 101 mL/min, respectively. Further, the CL_renal with Homo sapiens (setting [2]) was determined as 42 mL/min; with Homo sapiens (setting [3]), 44 mL/min; in the data set on Homo sapiens (setting [4]), 52 mL/min. Further, in the data set on Homo sapiens (study dosing duration 24 hours, tissue Plasma), the highest concentration (Cmax) – broadly, the peak of the concentration-time curve – amounted to 1380 ng/mL. Besides, in data set [1] (iv, at 30 mg, tissue Urine, read-out: Excretion), the dose excreted is 43.9%. The clearance (in general, the volume of plasma or blood freed of the substance per unit of time) in data set [1] (dose 30 mg, tissue Plasma) was 136 mL/min. Moreover, the CL renal in data set [1] (dose 30 mg, tissue Plasma, read-out: CL_renal) came out at 58 mL/min.
